Results as given in ChEMBL document CHEMBL1221263, “Preliminary studies of 3,4-dichloroaniline amides as antiparasitic agents: structure-activity analysis of a compound library in vitro against Trichomonas vaginalis” (Bioorg Med Chem Lett, 2010).
pIC50: −log10 of the molar value.

Experiments:
Trichomonas vaginalis [1] = assay: Antiparasitic activity against Trichomonas vaginalis G3 at 100 uM after 24 hrs by hemocytometric analysis; assay type: functional; conditions: G3, 24 h
Trichomonas vaginalis [2] = assay: Antiparasitic activity against Trichomonas vaginalis T1 at 100 uM after 24 hrs by hemocytometric analysis; assay type: functional; conditions: T1, 24 h
Trichomonas vaginalis [3] = assay: Antiparasitic activity against Trichomonas vaginalis G3 after 24 hrs by hemocytometric analysis; assay type: functional; conditions: G3, 24 h
Trichomonas vaginalis [4] = assay: Antiparasitic activity against Trichomonas vaginalis T1 after 24 hrs by hemocytometric analysis; assay type: functional, organism-based; conditions: T1, 24 h
[5] = Cytotoxicity against human CFU-GM cells; assay type: cell-based
[6] = Cytotoxicity against human erythroid progenitor cells; assay type: cell-based

Row | pIC50 (Trichomonas vaginalis [3]) | pIC50 (Trichomonas vaginalis [4]) | Structure (SMILES) | inhibition at 100 µM (Trichomonas vaginalis [1]) [%] | inhibition at 100 µM (Trichomonas vaginalis [2]) [%] | pIC50 [5] | pIC50 [6]
1 | – | – | O=C(Nc1ccc(Cl)c(Cl)c1)c1cccc(Cl)c1 | 70 | 19 | – | –
2 | – | – | O=C(Nc1ccc(Cl)c(Cl)c1)c1cccc(F)c1 | 61 | 29 | – | –
3 | – | – | O=C1C=CC(=O)c2c(O)cccc21 [JUGLONE] | 49 | 39 | – | –
4 | 6.11 | 6.14 | Cc1ncc([N+](=O)[O-])n1CCO [METRONIDAZOLE] | – | – | – | –
5 | – | – | O=C(Nc1ccc(Cl)c(Cl)c1)C1CCCCC1 | 30 | 62 | – | –
6 | – | – | COc1ccc(NC(=O)C2CCCCC2)cc1OC | 10 | 34 | – | –
7 | – | – | O=C(Nc1ccc(O)cc1)C1CCCCC1 | 39 | 25 | – | –
8 | – | – | COc1ccc(C(=O)Nc2ccc(Cl)c(Cl)c2)cc1 | 13 | 22 | – | –
9 | – | – | O=C1C(Cl)=C(Cl)C(=O)C(Cl)=C1Cl [CHLORANIL] | 40 | 12 | – | –
10 | – | – | O=C(Nc1ccc(Cl)c(Cl)c1)c1cccc2ccccc12 | 37 | 49 | – | –
11 | 4.05 | 4.11 | O=C(Nc1ccc(Cl)c(Cl)c1)c1cccc(C(F)(F)F)c1 | 66 | 69 | – | –
12 | – | – | COc1ccc(-c2ccccc2)cc1NC(=O)C1CCCCC1 | 28 | 36 | – | –
13 | – | – | O=C(Nc1ccc(Cl)c(Cl)c1)c1ccc(Cl)cc1 | 28 | 46 | – | –
14 | – | – | O=C(Nc1ccc(Cl)c(Cl)c1)c1ccc(-c2ccccc2)cc1 | 24 | 64 | – | –
15 | – | – | O=Cc1ccc(-c2ccc(Cl)cc2[N+](=O)[O-])o1 | 46 | 59 | – | –
16 | – | – | O=C(Nc1ccc(Cl)c(Cl)c1)c1cccc([N+](=O)[O-])c1 | 51 | 22 | – | –
17 | – | – | O=C(Nc1ccc(Cl)c(Cl)c1)c1ccc(Cl)c(Cl)c1 | 55 | 29 | – | –
18 | – | – | O=C(Nc1ccc(Cl)c(Cl)c1)c1ccc(Cl)cc1Cl | 46 | 38 | – | –
19 | – | – | O=C(Nc1ccc(Cl)c(Cl)c1)C12CC3CC(CC(C3)C1)C2 | 19 | 0 | – | –
20 | – | – | O=C(Nc1ccc(Cl)c(Cl)c1)c1ccc([N+](=O)[O-])cc1 | 40 | 44 | – | –
21 | – | – | CC(=O)Nc1ccc(O)cc1 [ACETAMINOPHEN] | 14 | 17 | – | –

Row | Structure (SMILES) | pIC50 (Trichomonas vaginalis [3]) | pIC50 (Trichomonas vaginalis [4]) | inhibition at 100 µM (Trichomonas vaginalis [1]) [%] | inhibition at 100 µM (Trichomonas vaginalis [2]) [%] | pIC50 [5] | pIC50 [6]
22 | CCC(=O)Nc1ccc(Cl)c(Cl)c1 [PROPANIL] | – | 3.92 | 20 | 29 | < 3.30 | 3.52
